Reference: publication PMC5154303, “Flavonol and imidazole derivatives block HPV16 E6 activities and reactivate apoptotic pathways in HPV^+ cells” (Cell Death & Disease, 2016)

What was measured:
p53 = p53 ELISA in SiHa cells; format: cell-based, human; settings: with 4 μg/ml mitomycin C, 24 h
Experimental: Figure 6 Treatment with myricetin and spinacine (5) increases cellular levels of caspase 8 and p53. (a) SiHa cells (1 × 10^6 per well) were seeded into a six-well plate and allowed to incubate overnight. The indicated concentrations of myricetin and spinacine were added, and then cells were incubated for 24 h. Cells were then washed in 1 × PBS and then harvested, and the resulting level of caspase 8 was measured by immunoblot. (b) SiHa and C33A cells (1 × 10^6 per well) were seeded into a six-well plate and allowed to incubate overnight. In all, 200 μM of myricetin and 100 μM spinacine were added together with 4 μg/ml mitomycin C and incubated for 24 h. The resulting level of p53 was measured by enzyme-linked immunosorbent assay, and the level of p53 found in untreated cells was set at 100%. Experiments were performed in triplicate, and error bars indicate the S.D.
The p53 ELISA was performed as described previously,[26] with some modifications. Antibodies secreted by clone pAb122 (hybridoma obtained from ATCC, antibodies purified from the culture medium using protein-A Sepharose) were used as monoclonal capture antibodies. […] The average and S.D. of the replicates (a minimum of three) were calculated, normalized to the control, and used to prepare the graph.

UMSCC 29 = assay: Sensitization to doxorubicin in HPV− HNSCC line UMSCC 29 (MTT); format: cell-based, human; settings: HPV− #29, compound 0–12.5 μM, 2 μM doxorubicin
Experimental: Figure 8 Myricetin and spinacine (5) can re-sensitize HPV^+, but not HPV^−, HNSCC cell lines to treatment with doxorubicin. Two HPV^− (UMMSCC 29 and SCC 84) and three HPV^+ (UMSCC 47, UPCI-SCC90-UP-Clone 35, and UM-SCC47-TC Clone 3) head and neck cancer cell lines (2 × 10^4 cells per well) were seeded into 96-well plates and allowed to incubate overnight, and then cells were pretreated with myricetin or spinacine (0–12.5 μM) for 4 h. In all, 2 μM of doxorubicin was added, and the cells were allowed to incubate overnight. Cell viability was measured by MTT assay, and the viability of cells untreated with small molecules was set at 100%. Experiments were performed in triplicate, and error bars indicate the S.D.
The extracellular domain of human TRAIL was cloned into a pTriEx expression plasmid containing N-terminal Hisx6 tag. His-TRAIL was expressed in the E. coli BL-21 pLys strain and purified as previously described. Doxorubicin and cisplatin were purchased from Sigma. His-TRAIL, doxorubicin, and cisplatin were diluted in PBS to the desired concentration before using. […] All experiments were repeated at least three times (three biological replicates, carried out on different days), with each experimental group measured in triplicate within each of these individual experiments. […]

O=C(O)C1Cc2[nH]cnc2CN1 (stereo not shown) [Spinacine (5), 4,5,6,7-tetrahydro-1H-imidazo[4,5–c]pyridine-6-carboxylic acid]
increase in p53 compared with untreated cells (p53; 100 μM): 3.4 fold | response to doxorubicin in presence and absence of compound (UMSCC 29): resistant

O=c1c(O)c(-c2cc(O)c(O)c(O)c2)oc2cc(O)cc(O)c12 [Myricetin, myricetin, reference compound]
increase in p53 compared with untreated cells (p53; 200 μM): 4.4 fold | response to doxorubicin in presence and absence of compound (UMSCC 29): resistant
